Laboratory results: BigSolDB 2.1

COc1cc(Cc2cnc(N)nc2N)cc(OC)c1OC
Conditions	solubility (mole fraction)
in THF, 276.05 K	0.000608
in THF, 281.81 K	0.000714
in THF, 287.31 K	0.000857
in THF, 292.65 K	0.000987
in THF, 298.08 K	0.00117
in THF, 303.12 K	0.00137
in THF, 306.95 K	0.00155
in THF, 311.69 K	0.00178
in THF, 316.74 K	0.00208
in THF, 321.34 K	0.00244
in THF, 326.91 K	0.00296
in THF, 333.87 K	0.00377
in acetone, 276.94 K	0.000456
in acetone, 282.12 K	0.00054
in acetone, 288.62 K	0.000664
in acetone, 292.94 K	0.00076
in acetone, 297.96 K	0.00089
in acetone, 304.17 K	0.00108
in acetone, 309.34 K	0.00128
in acetone, 314.34 K	0.00149
in acetone, 319.07 K	0.00173
in acetone, 323.51 K	0.00199
in ethanol, 281.15 K	0.000356
in ethanol, 287.25 K	0.000461
in ethanol, 292.64 K	0.000545
in ethanol, 297.95 K	0.000681
in ethanol, 302.05 K	0.000833
in ethanol, 307.85 K	0.00105
in ethanol, 311.35 K	0.00124
in ethanol, 315.24 K	0.00151
in ethanol, 318.85 K	0.00177
in ethanol, 323.95 K	0.00223
in ethanol, 326.65 K	0.00255
in ethanol, 330.66 K	0.00309
in ethanol, 335.25 K	0.00388
in isopropanol, 277.17 K	0.000109
in isopropanol, 282.82 K	0.000156
in isopropanol, 288.28 K	0.000202
in isopropanol, 293.13 K	0.000255
in isopropanol, 297.57 K	0.000322
in isopropanol, 304.04 K	0.000468
in isopropanol, 309.36 K	0.000644
in isopropanol, 315.13 K	0.00091
in isopropanol, 319.53 K	0.00117
in isopropanol, 324.04 K	0.00151
in isopropanol, 328.37 K	0.0019
in isopropanol, 333.64 K	0.00247
in methanol, 277.02 K	0.000828
in methanol, 282.85 K	0.001
in methanol, 288.09 K	0.0012
in methanol, 293.03 K	0.00143
in methanol, 298.17 K	0.00173
in methanol, 304.24 K	0.00217
in methanol, 309.36 K	0.00265
in methanol, 314.12 K	0.0032
in methanol, 319.06 K	0.00392
in methanol, 323.53 K	0.00471
in methanol, 328.15 K	0.00571
in methanol, 333.73 K	0.0072
in n-butanol, 276.35 K	0.000157
in n-butanol, 282.63 K	0.000254
in n-butanol, 287.96 K	0.000359
in n-butanol, 292.84 K	0.000473
in n-butanol, 298.46 K	0.000635
in n-butanol, 303.72 K	0.000844
in n-butanol, 308.84 K	0.00106
in n-butanol, 313.36 K	0.00133
in n-butanol, 318.45 K	0.00175
in n-butanol, 323.73 K	0.00235
in n-butanol, 329.21 K	0.00306
in n-butanol, 333.73 K	0.00386
in n-propanol, 277.35 K	0.000278
in n-propanol, 283.63 K	0.000328
in n-propanol, 288.97 K	0.000414
in n-propanol, 294.05 K	0.000531
in n-propanol, 298.93 K	0.000677
in n-propanol, 303.84 K	0.000866
in n-propanol, 308.44 K	0.00109
in n-propanol, 314.54 K	0.00148
in n-propanol, 319.17 K	0.00186
in n-propanol, 323.48 K	0.00231
in n-propanol, 328.57 K	0.00298
in n-propanol, 334.15 K	0.00392
in sec-butanol, 276.85 K	0.000153
in sec-butanol, 283.66 K	0.000179
in sec-butanol, 290.08 K	0.0003
in sec-butanol, 294.67 K	0.000422
in sec-butanol, 298.45 K	0.000562
in sec-butanol, 303.74 K	0.000758
in sec-butanol, 308.84 K	0.00101
in sec-butanol, 313.35 K	0.00131
in sec-butanol, 318.46 K	0.00172
in sec-butanol, 323.56 K	0.00231
in sec-butanol, 328.66 K	0.0029
in sec-butanol, 333.74 K	0.00377
